Key:
Type in all cases: functional
NCI-H226 = test: Cytotoxicity against human NCI-H226 cells assessed as cellular growth at 10 uM by SRB assay
TK-10 = test: Cytotoxicity against human TK10 cells assessed as cellular growth at 10 uM by SRB assay
HOP-62 = test: Cytotoxicity against human HOP62 cells assessed as cellular growth at 10 uM by SRB assay
786-0 = test: Cytotoxicity against human 786-0 cells assessed as cellular growth at 10 uM by SRB assay
ACHN = test: Cytotoxicity against human ACHN cells assessed as cellular growth at 10 uM by SRB assay
UO-31 = test: Cytotoxicity against human UO31 cells assessed as cellular growth at 10 uM by SRB assay
A549 = test: Cytotoxicity against human A549 cells assessed as cellular growth at 10 uM by SRB assay
UACC-257 = test: Cytotoxicity against human UACC257 cells assessed as cellular growth at 10 uM by SRB assay
CAKI-1 = test: Cytotoxicity against human Caki1 cells assessed as cellular growth at 10 uM by SRB assay
SN12C = test: Cytotoxicity against human SN12C cells assessed as cellular growth at 10 uM by SRB assay
HT-29 = test: Cytotoxicity against human HT-29 cells assessed as cellular growth at 10 uM by SRB assay
COLO 205 = test: Cytotoxicity against human COLO205 cells assessed as cellular growth at 10 uM by SRB assay
RXF 393 = test: Cytotoxicity against human RXF393 cells assessed as cellular growth at 10 uM by SRB assay
Malme-3M = test: Cytotoxicity against human MALME-3M cells assessed as cellular growth at 10 uM by SRB assay
HL-60(TB) = test: Cytotoxicity against human HL-60(TB) cells assessed as cellular growth at 10 uM by SRB assay
NCI-H23 = test: Cytotoxicity against human NCI-H23 cells assessed as cellular growth at 10 uM by SRB assay
SR = test: Cytotoxicity against human SR cells assessed as cellular growth at 10 uM by SRB assay
SK-OV-3 = test: Cytotoxicity against human SKOV3 cells assessed as cellular growth at 10 uM by SRB assay
HCT-15 = test: Cytotoxicity against human HCT15 cells assessed as cellular growth at 10 uM by SRB assay
HCC 2998 = test: Cytotoxicity against human HCC2998 cells assessed as cellular growth at 10 uM by SRB assay
RPMI-8226 = test: Cytotoxicity against human RPMI8226 cells assessed as cellular growth at 10 uM by SRB assay
NCI-H522 = test: Cytotoxicity against human NCI-H522 cells assessed as cellular growth at 10 uM by SRB assay
MOLT-4 = test: Cytotoxicity against human MOLT4 cells assessed as cellular growth at 10 uM by SRB assay
SF-539 = test: Cytotoxicity against human SF539 cells assessed as cellular growth at 10 uM by SRB assay
IGROV-1 = test: Cytotoxicity against human IGROV1 cells assessed as cellular growth at 10 uM by SRB assay
M14 = test: Cytotoxicity against human M14 cells assessed as cellular growth at 10 uM by SRB assay
SW-620 = test: Cytotoxicity against human SW620 cells assessed as cellular growth at 10 uM by SRB assay
EKVX = test: Cytotoxicity against human EKVX cells assessed as cellular growth at 10 uM by SRB assay
CCRF-CEM = test: Cytotoxicity against human CCRF-CEM cells assessed as cellular growth at 10 uM by SRB assay
NCI-H460 = test: Cytotoxicity against human NCI-H460 cells assessed as cellular growth at 10 uM by SRB assay
MCF7 = test: Cytotoxicity against human MCF7 cells assessed as cellular growth at 10 uM by SRB assay
K562 = test: Cytotoxicity against human K562 cells assessed as cellular growth at 10 uM by SRB assay
U-251 = test: Cytotoxicity against human U251 cells assessed as cellular growth at 10 uM by SRB assay
OVCAR-8 = test: Cytotoxicity against human OVCAR8 cells assessed as cellular growth at 10 uM by SRB assay
UACC-62 = test: Cytotoxicity against human UACC62 cells assessed as cellular growth at 10 uM by SRB assay
SK-MEL-2 = test: Cytotoxicity against human SK-MEL-2 cells assessed as cellular growth at 10 uM by SRB assay
BT-549 = test: Cytotoxicity against human BT549 cells assessed as cellular growth at 10 uM by SRB assay
OVCAR-5 = test: Cytotoxicity against human OVCAR5 cells assessed as cellular growth at 10 uM by SRB assay
SF-295 = test: Cytotoxicity against human SF295 cells assessed as cellular growth at 10 uM by SRB assay
PC-3 = test: Cytotoxicity against human PC3 cells assessed as cellular growth at 10 uM by SRB assay
SNB-19 = test: Cytotoxicity against human SNB19 cells assessed as cellular growth at 10 uM by SRB assay
T47D = test: Cytotoxicity against human T47D cells assessed as cellular growth at 10 uM by SRB assay
MDA-MB-435 = test: Cytotoxicity against human MDA-MB-435 cells assessed as cellular growth at 10 uM by SRB assay
SK-MEL-28 = test: Cytotoxicity against human SK-MEL-28 cells assessed as cellular growth at 10 uM by SRB assay
LOX IMVI = test: Cytotoxicity against human LOXIMVI cells assessed as cellular growth at 10 uM by SRB assay
SF-268 = test: Cytotoxicity against human SF268 cells assessed as cellular growth at 10 uM by SRB assay
KM12 = test: Cytotoxicity against human KM12 cells assessed as cellular growth at 10 uM by SRB assay
DU-145 = test: Cytotoxicity against human DU145 cells assessed as cellular growth at 10 uM by SRB assay
Hs-578T = test: Cytotoxicity against human Hs578T cells assessed as cellular growth at 10 uM by SRB assay
NCI-H322M = test: Cytotoxicity against human NCI-H322M cells assessed as cellular growth at 10 uM by SRB assay
MDA-MB-231 = test: Cytotoxicity against human MDA-MB-231 cells assessed as cellular growth at 10 uM by SRB assay
OVCAR-3 = test: Cytotoxicity against human OVCAR3 cells assessed as cellular growth at 10 uM by SRB assay
SNB-75 = test: Cytotoxicity against human SNB75 cells assessed as cellular growth at 10 uM by SRB assay
HCT-116 = test: Cytotoxicity against human HCT116 cells assessed as cellular growth at 10 uM by SRB assay
MDA-MB-468 = test: Cytotoxicity against human MDA-MB-468 cells assessed as cellular growth at 10 uM by SRB assay
SK-MEL-5 = test: Cytotoxicity against human SK-MEL-5 cells assessed as cellular growth at 10 uM by SRB assay
[1] = Cytotoxicity against human NCI-ADR-RES cells assessed as cellular growth at 10 uM by SRB assay
A498 = test: Cytotoxicity against human A498 cells assessed as cellular growth at 10 uM by SRB assay

COc1ccc(Cl)cc1C(=O)Nc1nc2ccc(Cl)cc2s1
Activity (NCI-H226): 89.17% | Activity (TK-10): 126.89% | Activity (HOP-62): 89.42% | Activity (786-0): 75.8% | Activity (ACHN): 85.89% | Activity (UO-31): 58.24% | Activity (A549): 76.66% | Activity (UACC-257): 101.95% | Activity (CAKI-1): 84.36% | Activity (SN12C): 91.7% | Activity (HT-29): 109.45% | Activity (COLO 205): 82.83% | Activity (RXF 393): 95.02% | Activity (Malme-3M): 83.31% | Activity (HL-60(TB)): 103.5% | Activity (NCI-H23): 90.46% | Activity (SR): 87.67% | Activity (SK-OV-3): 91.86% | Activity (HCT-15): 86.52% | Activity (HCC 2998): 102.29% | Activity (RPMI-8226): 80.55% | Activity (NCI-H522): 99.37% | Activity (MOLT-4): 95.65% | Activity (SF-539): 86.39% | Activity (IGROV-1): 65.9% | Activity (M14): 95.14% | Activity (SW-620): 100.98% | Activity (EKVX): 76.23% | Activity (CCRF-CEM): 86.4% | Activity (NCI-H460): 93.65% | Activity (MCF7): 41.75% | Activity (K562): 86.76% | Activity (U-251): 87.26% | Activity (OVCAR-8): 88.9% | Activity (UACC-62): 91.53% | Activity (SK-MEL-2): 103.7% | Activity (BT-549): 97.73% | Activity (OVCAR-5): 124.2% | Activity (SF-295): 169.8% | Activity (PC-3): 84.45% | Activity (SNB-19): 102.79% | Activity (T47D): 47.23% | Activity (MDA-MB-435): 97.59% | Activity (SK-MEL-28): 105.02% | Activity (LOX IMVI): 81.24% | Activity (SF-268): 83.22% | Activity (KM12): 94.77% | Activity (DU-145): 94.89% | Activity (Hs-578T): 102.47% | Activity (NCI-H322M): 85.62% | Activity (MDA-MB-231): 70.89% | Activity (OVCAR-3): 102.8% | Activity (SNB-75): 74.28% | Activity (HCT-116): 53.23% | Activity (MDA-MB-468): 76.66% | Activity (SK-MEL-5): 92.79% | Activity [1]: 101.67%

Cc1cc(C)c(NC(=O)c2sc3nc4c(cc3c2N)C(=O)CC(C)(C)C4)c(C)c1
Activity (NCI-H226): 92.57% | Activity (TK-10): 97.91% | Activity (HOP-62): 111.49% | Activity (786-0): 103.33% | Activity (ACHN): 106.81% | Activity (UO-31): 99.05% | Activity (A549): 96.6% | Activity (UACC-257): 101.32% | Activity (CAKI-1): 82.45% | Activity (SN12C): 103.6% | Activity (HT-29): 96.21% | Activity (COLO 205): 117% | Activity (RXF 393): 105.64% | Activity (Malme-3M): 92.73% | Activity (HL-60(TB)): 108.84% | Activity (NCI-H23): 94.31% | Activity (SR): 103.93% | Activity (SK-OV-3): 116.6% | Activity (HCT-15): 96.97% | Activity (HCC 2998): 105.78% | Activity (RPMI-8226): 90.56% | Activity (NCI-H522): 100.45% | Activity (MOLT-4): 100.05% | Activity (SF-539): 102.77% | Activity (IGROV-1): 95.36% | Activity (M14): 107.36% | Activity (SW-620): 106.45% | Activity (EKVX): 92.06% | Activity (CCRF-CEM): 90.08% | Activity (NCI-H460): 102.63% | Activity (A498): 89.84% | Activity (MCF7): 99.03% | Activity (K562): 90.16% | Activity (U-251): 99.68% | Activity (OVCAR-8): 107.09% | Activity (UACC-62): 96.9% | Activity (SK-MEL-2): 119.22% | Activity (BT-549): 109.43% | Activity (OVCAR-5): 100.8% | Activity (SF-295): 81.11% | Activity (PC-3): 87.69% | Activity (SNB-19): 122.53% | Activity (T47D): 88.69% | Activity (MDA-MB-435): 97.97% | Activity (SK-MEL-28): 107.04% | Activity (SF-268): 115.09% | Activity (KM12): 112.78% | Activity (DU-145): 127.81% | Activity (Hs-578T): 108.69% | Activity (NCI-H322M): 115.34% | Activity (MDA-MB-231): 115.09% | Activity (OVCAR-3): 112.82% | Activity (SNB-75): 105.78% | Activity (HCT-116): 99.79% | Activity (MDA-MB-468): 85.24% | Activity (SK-MEL-5): 89.79% | Activity [1]: 95.48%

From ChEMBL document CHEMBL2202954, “The effect of PLC-γ2 inhibitors on the growth of human tumour cells” (2012)
